Measured values published in publication PMC9052211 (RSC Advances, 2020).

Columns and labels:
Assay type in all cases: cell-based
K562 neoplastic cells = test: Cytotoxic activity by flow cytometry with 7-AAD staining, K562; details: Homo sapiens, K562, 24 h, read-out: Cytotoxic activity IC50, K562
[1] = Cytotoxic activity by flow cytometry with 7-AAD staining, HEK293; details: human
U937 neoplastic cells = test: Cytotoxic activity by flow cytometry with 7-AAD staining, U937; details: Homo sapiens, U-937, 24 h, read-out: Cytotoxic activity IC50, U937
Jurkat neoplastic cells = test: Cytotoxic activity by flow cytometry with 7-AAD staining, Jurkat; details: Homo sapiens, 24 h, read-out: Cytotoxic activity IC50, Jurkat

Cc1n[nH]c(C)c1CSc1ccccc1 [Compound 4a, 3,5-Dimethyl-4-[(phenylsulfanyl)methyl]-1H-pyrazole]
IC50 (K562 neoplastic cells): 2890 ± 30 nM | IC50 at 24 h [1]: 3800 ± 30 nM | IC50 (U937 neoplastic cells): 2940 ± 30 nM | IC50 (Jurkat neoplastic cells): 2470 ± 30 nM

Cc1n[nH]c(C)c1CSCc1ccccc1 [Compound 4b, 4-[(Benzylsulfanyl)methyl]-3,5-dimethyl-1H-pyrazole]
IC50 (K562 neoplastic cells): 1980 ± 60 nM | IC50 at 24 h [1]: 2980 ± 60 nM | IC50 (U937 neoplastic cells): 2150 ± 60 nM | IC50 (Jurkat neoplastic cells): 1240 ± 50 nM

Cc1n[nH]c(C)c1CSC1CCCCC1 [Compound 4c, 4-[(Cyclohexylsulfanyl)methyl]-3,5-dimethyl-1H-pyrazole]
IC50 (K562 neoplastic cells): 2160 ± 60 nM | IC50 at 24 h [1]: 3150 ± 50 nM | IC50 (U937 neoplastic cells): 1980 ± 70 nM | IC50 (Jurkat neoplastic cells): 1490 ± 60 nM

Cc1n[nH]c(C)c1CSc1ccc(O)cc1 [Compound 4d, 4-{[(3,5-Dimethyl-1H-pyrazol-4-yl)methyl]sulfanyl}-phenol]
IC50 (K562 neoplastic cells): 2340 ± 10 nM | IC50 at 24 h [1]: 3340 ± 80 nM | IC50 (U937 neoplastic cells): 2270 ± 20 nM | IC50 (Jurkat neoplastic cells): 1890 ± 20 nM
